ChEMBL document CHEMBL1201862, “PubChem BioAssay data set” (2004)
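1) Cells in 96-well plates. 2) Compound, 48 h, 5 concentrations. 3) Linear interpolation between surrounding doses. 4) Unreached endpoint = highest concentration. GI50 is the concentration that inhibits growth by half.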 Activity calls are given as the source filed them. No stated cut-off is given here; in the data, active = GI50 up to about 1.1 µM and inactive = higher.

Key:
Experiment in all cases: inhibition of tumour cell growth, NCI panel, 48 h
786-0 = system: 786-0
A498 = system: A498
A549 = system: A549
ACHN = system: ACHN
BT-549 = system: BT-549
CAKI-1 = system: CAKI-1
CCRF-CEM = system: CCRF-CEM
COLO 205 = system: COLO 205
DU-145 = system: DU-145
EKVX = system: EKVX
HCC 2998 = system: HCC 2998
HCT-116 = system: HCT-116
HCT-15 = system: HCT-15
HL-60 = system: HL-60
HOP-62 = system: HOP-62
HOP-92 = system: HOP-92
HT-29 = system: HT-29
Hs-578T = system: Hs-578T
IGROV-1 = system: IGROV-1
K562 = system: K562
KM12 = system: KM12
LOX IMVI = system: LOX IMVI
M14 = system: M14
MCF7 = system: MCF7
MDA-MB-231 = system: MDA-MB-231
MDA-MB-435 = system: MDA-MB-435
MDA-N = system: MDA-N
MOLT-4 = system: MOLT-4
Malme-3M = system: Malme-3M
NCI-H226 = system: NCI-H226
NCI-H23 = system: NCI-H23
NCI-H460 = system: NCI-H460
NCI-H522 = system: NCI-H522
NCI/ADR-RES = system: NCI/ADR-RES
OVCAR-3 = system: OVCAR-3
OVCAR-4 = system: OVCAR-4
OVCAR-5 = system: OVCAR-5
OVCAR-8 = system: OVCAR-8
PC-3 = system: PC-3
RPMI-8226 = system: RPMI-8226
RXF 393 = system: RXF 393
SF-268 = system: SF-268
SF-295 = system: SF-295
SF-539 = system: SF-539
SK-MEL-28 = system: SK-MEL-28
SK-MEL-2 = system: SK-MEL-2
SK-MEL-5 = system: SK-MEL-5
SK-OV-3 = system: SK-OV-3
SN12C = system: SN12C
SNB-19 = system: SNB-19
SNB-75 = system: SNB-75
SR = system: SR
SW-620 = system: SW-620
T47D = system: T47D
TK-10 = system: TK-10
U-251 = system: U-251
UACC-257 = system: UACC-257
UACC-62 = system: UACC-62
UO-31 = system: UO-31
DLD-1 = system: DLD-1
DMS-114 = system: DMS-114
DMS-273 = system: DMS-273
KM-20L2 = system: KM-20L2
LXFL 529 = system: LXFL 529
XF498 = system: XF498

SMILES: Cc1cc(O)c(-c2cc(O)c(C)cc2O)cc1O
- GI50 (786-0): 2.94 µM (inactive)
- GI50 (A498): 21 µM (inactive)
- GI50 (A549): 17.8 µM (inactive)
- GI50 (ACHN): 3.94 µM (inactive)
- GI50 (BT-549): 12.2 µM (inactive)
- GI50 (CAKI-1): 6.07 µM (inactive)
- GI50 (CCRF-CEM): 1.08 µM (active)
- GI50 (COLO 205): 7.16 µM (inactive)
- GI50 (DU-145): 14.9 µM (inactive)
- GI50 (EKVX): 8.99 µM (inactive)
- GI50 (HCC 2998): 14.1 µM (inactive)
- GI50 (HCT-116): 5.55 µM (inactive)
- GI50 (HCT-15): 7.67 µM
- GI50 (HL-60): 1.71 µM (inactive)
- GI50 (HOP-62): 16.7 µM (inactive)
- GI50 (HOP-92): 2.25 µM (inactive)
- GI50 (HT-29): 17.1 µM (inactive)
- GI50 (Hs-578T): 25.9 µM (inactive)
- GI50 (IGROV-1): 11.5 µM (inactive)
- GI50 (K562): 1.86 µM (inactive)
- GI50 (KM12): 12.6 µM (inactive)
- GI50 (LOX IMVI): 5.66 µM (inactive)
- GI50 (M14): 7.67 µM (inactive)
- GI50 (MCF7): 10 µM (inactive)
- GI50 (MDA-MB-231): 14.2 µM (inactive)
- GI50 (MDA-MB-435): 3.05 µM (inactive)
- GI50 (MDA-N): 8.34 µM (inactive)
- GI50 (MOLT-4): 2.06 µM (inactive)
- GI50 (Malme-3M): 11.1 µM (inactive)
- GI50 (NCI-H226): 18.7 µM (inactive)
- GI50 (NCI-H23): 10.5 µM (inactive)
- GI50 (NCI-H460): 18.7 µM (inactive)
- GI50 (NCI-H522): 4.04 µM (inactive)
- GI50 (NCI/ADR-RES): 26.4 µM (inactive)
- GI50 (OVCAR-3): 2.14 µM (inactive)
- GI50 (OVCAR-4): 5.5 µM (inactive)
- GI50 (OVCAR-5): 16.6 µM (inactive)
- GI50 (OVCAR-8): 3.24 µM (inactive)
- GI50 (PC-3): 11.6 µM (inactive)
- GI50 (RPMI-8226): 1.66 µM (inactive)
- GI50 (RXF 393): 2.38 µM (inactive)
- GI50 (SF-268): 19.1 µM (inactive)
- GI50 (SF-295): 16.7 µM (inactive)
- GI50 (SF-539): 3.02 µM (inactive)
- GI50 (SK-MEL-28): 9.23 µM (inactive)
- GI50 (SK-MEL-2): 17.2 µM (inactive)
- GI50 (SK-MEL-5): 14.4 µM (inactive)
- GI50 (SK-OV-3): 16.8 µM (inactive)
- GI50 (SN12C): 6.25 µM (inactive)
- GI50 (SNB-19): 18.9 µM (inactive)
- GI50 (SNB-75): 14.9 µM (inactive)
- GI50 (SR): 0.977 µM (active)
- GI50 (SW-620): 2.34 µM (inactive)
- GI50 (T47D): 2.43 µM (inactive)
- GI50 (TK-10): 5.93 µM (inactive)
- GI50 (U-251): 15 µM (inactive)
- GI50 (UACC-257): 7 µM (inactive)
- GI50 (UACC-62): 15.6 µM (inactive)
- GI50 (UO-31): 1.92 µM (inactive)

SMILES: CCOC(=O)C(C(CC(=O)OC)NC(=O)OCc1ccccc1)C1(C)OCCO1 (stereo not drawn)
- GI50 (786-0): > 100 µM (inactive)
- GI50 (A498): > 100 µM (inactive)
- GI50 (A549): > 100 µM (inactive)
- GI50 (ACHN): > 100 µM (inactive)
- GI50 (CCRF-CEM): > 100 µM (inactive)
- GI50 (COLO 205): > 100 µM (inactive)
- GI50 (DLD-1): > 100 µM (inactive)
- GI50 (DMS-114): > 100 µM (inactive)
- GI50 (DMS-273): > 100 µM (inactive)
- GI50 (EKVX): > 100 µM (inactive)
- GI50 (HCC 2998): > 100 µM (inactive)
- GI50 (HCT-116): > 100 µM (inactive)
- GI50 (HCT-15): > 100 µM
- GI50 (HL-60): > 100 µM (inactive)
- GI50 (HOP-62): > 100 µM (inactive)
- GI50 (HT-29): > 100 µM (inactive)
- GI50 (IGROV-1): > 100 µM (inactive)
- GI50 (K562): > 100 µM (inactive)
- GI50 (KM-20L2): > 100 µM (inactive)
- GI50 (LOX IMVI): > 100 µM (inactive)
- GI50 (LXFL 529): > 100 µM (inactive)
- GI50 (M14): > 100 µM (inactive)
- GI50 (MOLT-4): > 100 µM (inactive)
- GI50 (Malme-3M): > 100 µM (inactive)
- GI50 (NCI-H226): > 100 µM (inactive)
- GI50 (NCI-H23): > 100 µM (inactive)
- GI50 (NCI-H460): > 100 µM (inactive)
- GI50 (OVCAR-3): > 100 µM (inactive)
- GI50 (OVCAR-4): > 100 µM (inactive)
- GI50 (OVCAR-8): > 100 µM (inactive)
- GI50 (RPMI-8226): > 100 µM (inactive)
- GI50 (RXF 393): > 100 µM (inactive)
- GI50 (SF-268): > 100 µM (inactive)
- GI50 (SF-295): > 100 µM (inactive)
- GI50 (SF-539): > 100 µM (inactive)
- GI50 (SK-MEL-28): > 100 µM (inactive)
- GI50 (SK-MEL-2): > 100 µM (inactive)
- GI50 (SK-MEL-5): > 100 µM (inactive)
- GI50 (SN12C): > 100 µM (inactive)
- GI50 (SNB-19): > 100 µM (inactive)
- GI50 (SNB-75): 41.1 µM (inactive)
- GI50 (SR): > 100 µM (inactive)
- GI50 (SW-620): > 100 µM (inactive)
- GI50 (TK-10): > 100 µM (inactive)
- GI50 (U-251): > 100 µM (inactive)
- GI50 (UACC-257): > 100 µM (inactive)
- GI50 (UACC-62): > 100 µM (inactive)
- GI50 (UO-31): > 100 µM (inactive)
- GI50 (XF498): 61.4 µM (inactive)
